Patent publication US20120040009A1, “PARTICULATE PHARMACEUTICAL COMPOSITION WITH AN OPIOID AND AN OPIOID ANTAGONIST” (priority 2009, published 2012)

Conditions: non-opioid-dependent patients; intravenous administration of 200 mg morphine

Compound: C=CCN1CC[C@]23c4c5ccc(O)c4O[C@H]2C(=O)CC[C@@]3(O)[C@H]1C5 [naloxone, (5R,9R,13S,14S)-17-allyl-3,14-dihydroxy-4,5-epoxymorphinan-6-on]
- naloxone sufficient to trigger discrete withdrawal symptoms: 0.4 mg
